From patent US11530384B2, “Use of matrix cells for preparing a micro hair follicle” (L'OREAL, priority 2015, dated 2022)
Entries after “also recorded” stand apart in the source; their conditions may differ.

System: matrix cells
Experiment: Culture-amplification of hair matrix cells on a 3T3 feeder layer in the presence of Y27632
Format: cell-based, human
Settings: matrix cells cultured on mitomycin-blocked 3T3 feeder layer, Green-based medium, 10 μM of Y27632
Excerpt: Some authors have proposed culturing these cells in coculture with papilla fibroblasts. The drawback of this method is that the culture obtained is not homogeneous, the matrix cells are contaminated with the dermal fibroblasts from the papilla used in coculture (Reynolds A J, Lawrence […] Human hair follicle germinative epidermal cell culture. J Invest Dermatol. 1993 October; 101(4):634-8). Luo et al. have proposed a technique of microdissection followed by culture of the matrix cells on a plastic support (Luo et al: Methods for culturing hair follicle epithelial matrix cells; Reg. number: H1610; Nov. 5, 1996). However, this microdissection technique results in a very low yield of matrix cells. The applicant has isolated the matrix cells and developed a process for culturing these cells. […] keratinocytes until they reach confluence while forming regular clusters. The cells are amplified according to the technique of Rheinwald and Green (Cell, vol. 6, 331-344,1975) by culturing on a feeder support constituted of fibroblasts in a suitable medium known to those skilled in the art, in the presence of growth factors, in particular amino acids, serum, cholera toxin, insulin, triiodothyronine and pH buffer solution. […]

Structure (SMILES): C[C@@H](N)[C@H]1CC[C@H](C(=O)Nc2ccncc2)CC1 [Y27632]
- differentiation of matrix cells into keratinocytes positive for K85 K35 markers: differentiation thereof into keratinocytes that are positive for the K85 K35 markers; also recorded: differentiate into K85 K35 keratinocytes
- proliferation of matrix cells in culture: considerable proliferation; also recorded: proliferate rapidly
